In ChEMBL document CHEMBL1201862, “PubChem BioAssay data set” (2004):
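Protocol summary: plate cells (96-well), add compound at 5 concentrations, incubate 48 h, interpolate endpoints linearly. Here, GI50 denotes the concentration required for 50% inhibition of growth.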 Active and inactive are the calls of the source. Rule as the data show it: active = GI50 up to about 1.1 µM and inactive = higher.

Tests used:
Assay in all cases: growth of human tumour cells (NCI), 48 h
BT-549 = test system: BT-549
SR = test system: SR
SF-295 = test system: SF-295
SK-MEL-2 = test system: SK-MEL-2
NCI-H23 = test system: NCI-H23
U-251 = test system: U-251
HCT-15 = test system: HCT-15
A549 = test system: A549
SK-OV-3 = test system: SK-OV-3
NCI-H522 = test system: NCI-H522
CCRF-CEM = test system: CCRF-CEM
HCT-116 = test system: HCT-116
OVCAR-5 = test system: OVCAR-5
SNB-19 = test system: SNB-19
MDA-N = test system: MDA-N
SN12C = test system: SN12C
MOLT-4 = test system: MOLT-4
Malme-3M = test system: Malme-3M
SK-MEL-5 = test system: SK-MEL-5
HOP-62 = test system: HOP-62

Row | Structure (SMILES) | GI50 (BT-549) | GI50 (SR) | GI50 (SF-295) | GI50 (SK-MEL-2) | GI50 (NCI-H23) | GI50 (U-251) | GI50 (HCT-15) [µM] | GI50 (A549) | GI50 (SK-OV-3) | GI50 (NCI-H522) | GI50 (CCRF-CEM) | GI50 (HCT-116) | GI50 (OVCAR-5) | GI50 (SNB-19) | GI50 (MDA-N) | GI50 (SN12C) | GI50 (MOLT-4) | GI50 (Malme-3M) | GI50 (SK-MEL-5) | GI50 (HOP-62)
1 | COC(=O)C1=C(OC(=O)/C=C/c2ccccc2)C(C(=O)OC)[C@@]2(O)[C@@H](C(=O)OC)[C@H](C)C[C@@H]1[C@@H]2C(=O)OC (stereo not given in full) | 15.4 µM (inactive) | > 100 µM (inactive) | 19.9 µM (inactive) | 24.9 µM (inactive) | 17.3 µM (inactive) | 18.8 µM (inactive) | 11.7 | 15.3 µM (inactive) | 21.4 µM (inactive) | 5.58 µM (inactive) | 56.5 µM (inactive) | 24.1 µM (inactive) | 11.7 µM (inactive) | 26.2 µM (inactive) | 19.7 µM (inactive) | 13.9 µM (inactive) | > 100 µM (inactive) | 15.8 µM (inactive) | 26.9 µM (inactive) | 19 µM (inactive)
2 | Cc1cnc2sn(-c3ccc(Br)cc3)c(=O)c2c1 | 35 µM (inactive) | 40.7 µM (inactive) | 26.5 µM (inactive) | > 100 µM (inactive) | 33 µM (inactive) | 27.1 µM (inactive) | 26.6 | 36.6 µM (inactive) | 41.6 µM (inactive) | 2.37 µM (inactive) | 24.4 µM (inactive) | 42.8 µM (inactive) | 44.2 µM (inactive) | 40.9 µM (inactive) | > 100 µM (inactive) | 59.6 µM (inactive) | 30.4 µM (inactive) | 15.1 µM (inactive) | 42.6 µM (inactive) | 27.7 µM (inactive)
3 | COc1c(-c2nc3ccc(N4CCN(C)CC4)cc3[nH]2)cc(OC)c2[nH]c(CO)nc12 | > 100 µM (inactive) | > 100 µM (inactive) | > 100 µM (inactive) | > 100 µM (inactive) | > 100 µM (inactive) | 74.8 µM (inactive) | > 100 | > 100 µM (inactive) | > 100 µM (inactive) | 65.2 µM (inactive) | 13.3 µM (inactive) | 58.6 µM (inactive) | > 100 µM (inactive) | 44.4 µM (inactive) | 89.7 µM (inactive) | 74.6 µM (inactive) | > 100 µM (inactive) | > 100 µM (inactive) | > 100 µM (inactive) | 92.9 µM (inactive)
4 | O=C(O)CSc1n[nH]c(=O)[nH]c1=O | > 100 µM (inactive) | > 100 µM (inactive) | > 100 µM (inactive) | > 100 µM (inactive) | > 100 µM (inactive) | > 100 µM (inactive) | > 100 | > 100 µM (inactive) | > 100 µM (inactive) | > 100 µM (inactive) | > 100 µM (inactive) | > 100 µM (inactive) | > 100 µM (inactive) | > 100 µM (inactive) | > 100 µM (inactive) | > 100 µM (inactive) | > 100 µM (inactive) | > 100 µM (inactive) | > 100 µM (inactive) | > 100 µM (inactive)
5 | O=C1CCc2cc3c(cc21)C(C(=O)O)CC3 (stereo not given) | > 100 µM (inactive) | > 100 µM (inactive) | > 100 µM (inactive) | > 100 µM (inactive) | > 100 µM (inactive) | > 100 µM (inactive) | > 100 | > 100 µM (inactive) | > 100 µM (inactive) | > 100 µM (inactive) | > 100 µM (inactive) | > 100 µM (inactive) | > 100 µM (inactive) | > 100 µM (inactive) | > 100 µM (inactive) | > 100 µM (inactive) | > 100 µM (inactive) | > 100 µM (inactive) | > 100 µM (inactive) | > 100 µM (inactive)
